Experimental data reported in patent US11840497B2, “4-(p-quinonyl)-2-hydroxybutanamide derivatives for treatment of mitochondrial diseases” (PTC Therapeutics, Inc., priority 2007, dated 2023).

Columns and labels:
Type in all cases: cell-based
[1] = system: Human dermal fibroblasts from Friedreich's Ataxia patients; experiment: Rescue of BSO-stressed FRDA fibroblasts (Example A); details: FRDA fibroblasts GM04078, 1 mM BSO, read-out: protection against FRDA, EC50
Description: Test samples, 4 reference compounds (idebenone, decylubiquinone, Trolox and α-tocopherol acetate), and solvent controls were tested for their ability to rescue FRDA fibroblasts stressed by addition of L-buthionine (S,R)-sulfoximine (BSO), as described in Jauslin et al., Hum. Mol. Genet. […] Mol. Genet. […] This specific BSO-mediated cell death can be prevented by administration of antioxidants or molecules involved in the antioxidant pathway, such as α-tocopherol, selenium, or small molecule glutathione peroxidase mimetics. However, antioxidants differ in their potency, i.e. the concentration at which they are able to rescue BSO-stressed FRDA fibroblasts.
Fetal Calf Serum was obtained from PAA Laboratories. Basic fibroblast growth factor and epidermal growth factor were purchased from PeproTech. Penicillin-streptomycin-glutamine mix, L-buthionine (S,R)-sulfoximine, (+)-α-tocopherol acetate, decylubiquinone, and insulin from bovine pancreas were purchased from Sigma. Trolox (6-Hydroxy-2,5,7,8-tetramethylchroman-2-carboxylic acid) was obtained from Fluka. Idebenone was obtained from Chemo Iberica. Calcein AM was purchased from Molecular Probes. Cell culture medium was made by combining 125 ml M199 EBS, 50 ml Fetal Calf Serum, 100 U/ml penicillin, 100 μg/ml streptomycin, 2 mM glutamine, 10 μg/ml insulin, 10 ng/ml EGF, and 10 ng/ml bFGF; MEM EBS was added to make the volume up to 500 ml. […] During the course of the experiments, this solution was stored at +4° C. The cells were obtained from the Coriell Cell Repositories (Camden, NJ; repository number GM04078) and grown in 10 cm tissue culture plates. Every third day, they were split at a 1:3 ratio.
The test samples were supplied in 1.5 ml glass vials. […] Once dissolved, they were stored at −20° C. Reference antioxidants (idebenone, decylubiquinone, α-tocopherol acetate and trolox) were dissolved in DMSO.
Test samples were screened according to the following protocol: A culture with FRDA fibroblasts was started from a 1 ml vial with approximately 500,000 cells stored in liquid nitrogen. […] Once confluent, fibroblasts were harvested. […] The remaining cells were distributed in 10 cm cell culture plates (500,000 cells/plate) for propagation. The plates were incubated overnight at 37° C. in a atmosphere with 95% humidity and 5% CO2 to allow attachment of the cells to the culture plate.
MTP medium (243 μl) was added to a well of the microtiter plate. […] Serial dilutions from the master solution were made. The period between the single dilution steps was kept as short as possible (generally less than 1 second).
Plates were kept overnight in the cell culture incubator. The next day, 10 μl of a 10 mM BSO solution were added to the wells, resulting in a 1 mM final BSO concentration. Forty-eight hours later, three plates were examined under a phase-contrast microscope to verify that the cells in the 0% control (wells E1-H1) were clearly dead. The medium from all plates was discarded, and the remaining liquid was removed by gently tapping the plate inversed onto a paper towel.
The plates were incubated for 50-70 minutes at room temperature. After that time the PBS was discarded, the plate gently tapped on a paper towel and fluorescence (excitation/emission wavelengths of 485 nm and 525 nm, respectively) was read on a Gemini fluorescence reader. Data was imported into Microsoft Excel (EXCEL is a registered trademark of Microsoft Corporation for a spreadsheet program) and used to calculate the EC50 concentration for each compound.
The compounds were tested three times, i.e., the experiment was performed three times, the passage number of the cells increasing by one with every repetition.
The viability of non-BSO treated fibroblasts was set as 100%, and the viability of the BSO- and compound-treated cells was calculated as relative to this value.

[2] = system: human dermal fibroblasts from CoQ10 deficient patients; experiment: Rescue of stressed fibroblasts from CoQ10 deficient patients (Example E); details: Fibroblast, fibroblasts harboring a CoQ2 mutation, screen similar to Example A, read-out: protection against CoQ10 deficiency, EC50
Description: Compounds of the invention were tested using a screen similar to the one described in Example A, but substituting FRDA cells with cells obtained from CoQ10 deficient patients harboring a CoQ2 mutation.

[3] = system: human dermal fibroblasts from LHON patients; experiment: Rescue of BSO-stressed fibroblasts from LHON patients (Example C); details: Fibroblast, LHON fibroblasts GM03858, screen as Example A, read-out: protection against LHON, EC50
Description: The compounds were tested for their ability to rescue human dermal fibroblasts from LHON patients from oxidative stress.

[4] = system: human dermal fibroblasts from Huntington's patients; experiment: Rescue of BSO-stressed fibroblasts from Huntington's patients (Example B); details: Fibroblast, Huntington's fibroblasts GM 04281, screen as Example A, read-out: protection against Hungtington's, EC50
Description: The compounds were tested for their ability to rescue human dermal fibroblasts from Huntington's patients from oxidative stress.

[5] = system: human dermal fibroblasts from Parkinson's Disease patients; experiment: Rescue of BSO-stressed fibroblasts from Parkinson's Disease patients (Example D); details: Fibroblast, PD fibroblasts AG20439, screen as Example A, read-out: protection against PD, EC50
Description: The compounds were tested for their ability to rescue human dermal fibroblasts from Parkinson's Disease patients from oxidative stress.

Compound	EC50 [1] [µM]	EC50 [2] [µM]	EC50 [3] [µM]	EC50 [4] [µM]	EC50 [5] [µM]
CC1=C(C)C(=O)C(CCC(C)(O)C(=O)N2CCNCC2)=C(C)C1=O (stereo not drawn) [2-(3-hydroxy-3-methyl-4-oxo-4-(piperazin-1-yl)butyl)-3,5,6-trimethylcyclohexa-2,5-diene-1,4-dione]	< 0.1	< 0.1	–	–	–
CC(=O)N1CCN(C(=O)C(C)(O)CCC2=C(C)C(=O)C(C)=C(C)C2=O)CC1 (stereo not drawn) [2-(4-(4-acetylpiperazin-1-yl)-3-hydroxy-3-methyl-4-oxobutyl)-3,5,6-trimethylcyclohexa-2,5-diene-1,4-dione]	< 0.1	< 0.1	< 0.1	< 0.1	–
CC1=C(C)C(=O)C(CCC(C)(O)C(=O)NCc2cccnc2)=C(C)C1=O (stereo not drawn) [2-hydroxy-2-methyl-N-(pyridin-3-ylmethyl)-4-(2,4,5-trimethyl-3,6-dioxocyclohexa-1,4-dienyl)butanamide]	–	< 0.1	< 0.1	–	–
CC1=C(C)C(=O)C(CCC(C)(O)C(=O)NC(C)C)=C(C)C1=O (stereo not drawn) [2-hydroxy-N-isopropyl-2-methyl-4-(2,4,5-trimethyl-3,6-dioxocyclohexa-1,4-dienyl)butanamide]	–	–	–	–	< 0.1
CC1=C(C)C(=O)C(CC[C@](C)(O)C(N)=O)=C(C)C1=O [(S)-2-hydroxy-2-methyl-4-(2,4,5-trimethyl-3,6-dioxocyclohexa-1,4-dienyl)butanamide]	< 0.1	< 0.1	< 0.1	< 0.1	–
CC1=C(C)C(=O)C(CCC(C)(O)C(N)=O)=C(C)C1=O (stereo not drawn) [Example 16, 2-Hydroxy-2-methyl-4-(2,4,5-trimethyl-3,6-dioxocyclohexa-1,4-dienyl)butanamide]	< 0.1	< 0.1	< 0.1	< 0.1	–
CC1=C(C)C(=O)C(CCC(C)(O)C(=O)NC(C)CO)=C(C)C1=O (stereo not drawn) [Example 19, 2-Hydroxy-N-(1-hydroxypropan-2-yl)-2-methyl-4-(2,4,5-trimethyl-3,6-dioxocyclohexa-1,4-dienyl)butanamide]	< 0.1	–	< 0.1	< 0.1	–
CC1=C(C)C(=O)C(CCC(C)(O)C(=O)NCCCn2ccnc2)=C(C)C1=O (stereo not drawn) [Example 23, N-(3-(1H-imidazol-1-yl)propyl)-2-hydroxy-2-methyl-4-(2,4,5-trimethyl-3,6-dioxocyclohexa-1,4-dienyl)butanamide]	< 0.1	–	–	< 0.1	< 0.1
CC1=C(C)C(=O)C(CC[C@@](C)(O)C(=O)NCCO)=C(C)C1=O [Example 24, (R)-2-Hydroxy-N-(2-hydroxyethyl)-2-methyl-4-(2,4,5-trimethyl-3,6-dioxocyclohexa-1,4-dienyl)butanamide]	< 0.1	–	–	< 0.1	< 0.1
CCCCCCNC(=O)C(C)(O)CCC1=C(C)C(=O)C(C)=C(C)C1=O (stereo not drawn) [Example 43, N-hexyl-2-hydroxy-2-methyl-4-(2,4,5-trimethyl-3,6-dioxocyclohexa-1,4-dienyl)butanamide]	–	< 0.1	< 0.1	–	–
CC1=C(C)C(=O)C(CCC(C)(O)C(=O)NCc2ccccc2Cl)=C(C)C1=O (stereo not drawn) [N-(2-chlorobenzyl)-2-hydroxy-2-methyl-4-(2,4,5-trimethyl-3,6-dioxocyclohexa-1,4-dienyl)butanamide]	< 0.1	–	< 0.1	< 0.1	–
CC1=C(C)C(=O)C(CCC(C)(O)C(=O)NCCc2ccccc2Cl)=C(C)C1=O (stereo not drawn) [N-(2-chlorophenethyl)-2-hydroxy-2-methyl-4-(2,4,5-trimethyl-3,6-dioxocyclohexa-1,4-dienyl)butanamide]	< 0.1	< 0.1	–	–	–
CC1=C(C)C(=O)C(CCC(C)(O)C(=O)NCc2ccccc2F)=C(C)C1=O (stereo not drawn) [N-(2-fluorobenzyl)-2-hydroxy-2-methyl-4-(2,4,5-trimethyl-3,6-dioxocyclohexa-1,4-dienyl)butanamide]	< 0.1	–	< 0.1	< 0.1	–
CC1=C(C)C(=O)C(CCC(C)(O)C(=O)NCc2cccc(Cl)c2)=C(C)C1=O (stereo not drawn) [N-(3-chlorobenzyl)-2-hydroxy-2-methyl-4-(2,4,5-trimethyl-3,6-dioxocyclohexa-1,4-dienyl)butanamide]	< 0.1	–	< 0.1	< 0.1	–
CC1=C(C)C(=O)C(CCC(C)(O)C(=O)NCCc2cccc(Cl)c2)=C(C)C1=O (stereo not drawn) [N-(3-chlorophenethyl)-2-hydroxy-2-methyl-4-(2,4,5-trimethyl-3,6-dioxocyclohexa-1,4-dienyl)butanamide]	< 0.1	–	< 0.1	< 0.1	–
CC1=C(C)C(=O)C(CCC(C)(O)C(=O)NCc2cccc(F)c2)=C(C)C1=O (stereo not drawn) [N-(3-fluorobenzyl)-2-hydroxy-2-methyl-4-(2,4,5-trimethyl-3,6-dioxocyclohexa-1,4-dienyl)butanamide]	< 0.1	–	< 0.1	< 0.1	–
CC1=C(C)C(=O)C(CCC(C)(O)C(=O)NCc2ccc(Cl)cc2)=C(C)C1=O (stereo not drawn) [N-(4-chlorobenzyl)-2-hydroxy-2-methyl-4-(2,4,5-trimethyl-3,6-dioxocyclohexa-1,4-dienyl)butanamide]	< 0.1	–	< 0.1	< 0.1	–
CC1=C(C)C(=O)C(CCC(C)(O)C(=O)NCCc2ccc(Cl)cc2)=C(C)C1=O (stereo not drawn) [N-(4-chlorophenethyl)-2-hydroxy-2-methyl-4-(2,4,5-trimethyl-3,6-dioxocyclohexa-1,4-dienyl)butanamide]	< 0.1	< 0.1	< 0.1	< 0.1	–
CC1=C(C)C(=O)C(CCC(C)(O)C(=O)Nc2ccc(Cl)cc2)=C(C)C1=O (stereo not drawn) [N-(4-chlorophenyl)-2-hydroxy-2-methyl-4-(2,4,5-trimethyl-3,6-dioxocyclohexa-1,4-dienyl)butanamide]	< 0.1	–	< 0.1	< 0.1	–
CC1=C(C)C(=O)C(CCC(C)(O)C(=O)NCc2ccc(F)cc2)=C(C)C1=O (stereo not drawn) [N-(4-fluorobenzyl)-2-hydroxy-2-methyl-4-(2,4,5-trimethyl-3,6-dioxocyclohexa-1,4-dienyl)butanamide]	< 0.1	–	< 0.1	< 0.1	–
CC1=C(C)C(=O)C(CCC(C)(O)C(=O)NCCc2ccc(F)cc2)=C(C)C1=O (stereo not drawn) [N-(4-fluorophenethyl)-2-hydroxy-2-methyl-4-(2,4,5-trimethyl-3,6-dioxocyclohexa-1,4-dienyl)butanamide]	< 0.1	–	< 0.1	< 0.1	–
CC1=C(C)C(=O)C(CCC(C)(O)C(=O)Nc2ccc(F)cc2)=C(C)C1=O (stereo not drawn) [N-(4-fluorophenyl)-2-hydroxy-2-methyl-4-(2,4,5-trimethyl-3,6-dioxocyclohexa-1,4-dienyl)butanamide]	< 0.1	< 0.1	< 0.1	< 0.1	–
CC1=C(C)C(=O)C(CCC(C)(O)C(=O)N2CCN(C(=O)OC(C)(C)C)CC2)=C(C)C1=O (stereo not drawn) [tert-butyl 4-(2-hydroxy-2-methyl-4-(2,4,5-trimethyl-3,6-dioxocyclohexa-1,4-dienyl)butanoyl)piperazine-1-carboxylate]	–	< 0.1	–	–	–
